# Test results reported in ChEMBL document CHEMBL1201862, “PubChem BioAssay data set” (2004).
# Activity calls are given as the source filed them.
# Legend:
# [1] = biological target: T1, Replicative DNA helicase DnaB (Mycobacterium tuberculosis, UniProt P9WMR3); experiment: DnaB intein splicing inhibitors, dose response, biochemical, cell-free fluorescence (AID 449749); format: functional
# T1 sequence (P9WMR3 whole entry): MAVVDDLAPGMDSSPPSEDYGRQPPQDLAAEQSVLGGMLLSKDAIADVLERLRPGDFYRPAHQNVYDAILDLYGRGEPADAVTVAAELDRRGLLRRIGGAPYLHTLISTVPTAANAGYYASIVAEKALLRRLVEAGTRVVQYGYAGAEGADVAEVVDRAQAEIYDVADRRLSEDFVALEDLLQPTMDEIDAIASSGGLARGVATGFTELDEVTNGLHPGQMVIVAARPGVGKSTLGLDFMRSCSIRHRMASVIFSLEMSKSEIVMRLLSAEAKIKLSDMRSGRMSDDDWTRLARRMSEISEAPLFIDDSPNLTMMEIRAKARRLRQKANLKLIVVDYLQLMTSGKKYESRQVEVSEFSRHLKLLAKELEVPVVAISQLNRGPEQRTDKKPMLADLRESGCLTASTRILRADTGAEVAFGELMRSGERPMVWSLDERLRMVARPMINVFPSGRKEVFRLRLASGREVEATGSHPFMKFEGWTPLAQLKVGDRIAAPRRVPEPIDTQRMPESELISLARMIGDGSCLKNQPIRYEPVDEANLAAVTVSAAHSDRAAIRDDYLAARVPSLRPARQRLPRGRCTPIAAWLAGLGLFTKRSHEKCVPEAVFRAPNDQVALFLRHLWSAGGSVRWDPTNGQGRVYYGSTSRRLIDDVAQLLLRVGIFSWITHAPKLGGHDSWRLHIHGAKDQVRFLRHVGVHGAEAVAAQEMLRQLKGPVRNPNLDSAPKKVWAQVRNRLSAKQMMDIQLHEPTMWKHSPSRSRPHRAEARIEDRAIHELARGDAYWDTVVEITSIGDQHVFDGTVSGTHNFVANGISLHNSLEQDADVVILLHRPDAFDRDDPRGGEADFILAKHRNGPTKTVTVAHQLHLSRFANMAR
# [2] = biological target: T2, Protein RecA (Mycobacterium tuberculosis, UniProt P9WHJ3); experiment: Fluorescence Cell-Free Homogeneous Dose Retest to Identify Inhibitors of RecA-Intein Splicing Activity. [Related pubchem assays (depositor defined):AID2097, AID2223, AID489010, AID492950]; format: functional
# T2 sequence (P9WHJ3 whole entry): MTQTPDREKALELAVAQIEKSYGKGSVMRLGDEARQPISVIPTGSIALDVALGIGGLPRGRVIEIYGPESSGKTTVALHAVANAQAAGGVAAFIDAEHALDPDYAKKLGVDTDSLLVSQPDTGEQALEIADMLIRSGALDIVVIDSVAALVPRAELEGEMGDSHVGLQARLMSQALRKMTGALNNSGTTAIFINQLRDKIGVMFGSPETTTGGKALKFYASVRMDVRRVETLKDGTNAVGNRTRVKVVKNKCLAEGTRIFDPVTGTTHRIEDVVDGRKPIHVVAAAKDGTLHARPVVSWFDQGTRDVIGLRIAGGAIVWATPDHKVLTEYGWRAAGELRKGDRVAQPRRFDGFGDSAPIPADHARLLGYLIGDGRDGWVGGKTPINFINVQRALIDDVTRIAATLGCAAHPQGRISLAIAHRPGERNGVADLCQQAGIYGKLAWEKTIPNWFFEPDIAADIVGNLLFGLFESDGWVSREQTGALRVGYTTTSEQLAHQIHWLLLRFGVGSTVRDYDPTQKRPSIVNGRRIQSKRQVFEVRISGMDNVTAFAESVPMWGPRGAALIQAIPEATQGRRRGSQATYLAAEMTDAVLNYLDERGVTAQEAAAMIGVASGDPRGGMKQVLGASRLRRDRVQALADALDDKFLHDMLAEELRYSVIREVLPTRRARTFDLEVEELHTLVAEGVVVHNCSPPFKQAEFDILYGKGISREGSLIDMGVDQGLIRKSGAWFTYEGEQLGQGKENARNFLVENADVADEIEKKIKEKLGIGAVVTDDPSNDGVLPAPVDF
# [3] = Luminescence Cell-Based Dose Confirmation HTS to Identify Activators of 5'UTR Stem-Loop Driven Alpha-Synuclein mRNA Translation in H4 Neuroglioblastoma Cells. [Related pubchem assays: 1829 (Project Summary), 1814 (Primary HTS)]; format: functional
# [4] = Luminescence Cell-Based Dose Response HTS to Identify Activators of Luciferase Translation or Activity in H4 […] Cells. [Related pubchem assays: 1829 (Project Summary), 1814 (Primary HTS)]; format: functional
# [5] = tested on: H4; experiment: Luminescence Cell-Based Dose Response HTS to Identify Activators of 5'UTR Stem-Loop Driven Prion Protein mRNA Translation in H4 Neuroglioblastoma Cells. [Related pubchem assays: 1829 (Project Summary), 1814 (Primary HTS)]; format: functional; settings: Homo sapiens
# [6] = Luminescence Cell-Based Dose Retest to Confirm Inhibitors of Cancer Stem Cells. [Related pubchem assays (depositor defined):AID2717, AID2721]; format: functional; settings: Homo sapiens
# [7] = tested on: INS1; experiment: beta cell apoptosis inhibitors, cytokine rescue, dose response, luminescence, retest (AID 449756); format: functional, cell-based; settings: Rattus norvegicus;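 also: cell death triggered by IL-1 beta plus TNF-alpha plus IFN-gamma mixture; protective hits raise ATP signal compared with cytokine alone wells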
# [8] = biological target: Cytochrome P450 2D6 (Homo sapiens, UniProt P10635);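 also: CYP2D6 member of a cytochrome P450 panel assay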
# [9] = biological target: Cytochrome P450 3A4 (Homo sapiens, UniProt P08684);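 also: CYP3A4 tested as one member of a cytochrome P450 panel screen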
# [10] = biological target: T3, Cytochrome P450 1A2 (Homo sapiens, UniProt P05177);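 also: PubChem cytochrome P450 panel assay, CYP1A2 panel member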
# T3 sequence (P05177 whole entry): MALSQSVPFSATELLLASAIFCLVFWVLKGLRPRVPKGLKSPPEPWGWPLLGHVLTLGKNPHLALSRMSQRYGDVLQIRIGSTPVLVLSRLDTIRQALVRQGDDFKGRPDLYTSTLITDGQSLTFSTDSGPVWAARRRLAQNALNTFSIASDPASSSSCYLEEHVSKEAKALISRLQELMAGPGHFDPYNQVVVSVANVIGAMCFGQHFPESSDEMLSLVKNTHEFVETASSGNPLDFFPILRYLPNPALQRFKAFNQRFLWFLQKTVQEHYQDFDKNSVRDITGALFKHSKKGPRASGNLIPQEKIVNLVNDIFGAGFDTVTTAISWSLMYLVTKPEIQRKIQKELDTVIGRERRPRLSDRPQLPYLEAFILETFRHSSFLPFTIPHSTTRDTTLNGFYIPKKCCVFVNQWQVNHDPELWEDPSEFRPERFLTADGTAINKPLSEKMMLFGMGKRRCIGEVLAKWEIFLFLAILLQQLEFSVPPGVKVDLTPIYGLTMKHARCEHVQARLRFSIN
# [11] = biological target: Cytochrome P450 2C9 (Homo sapiens, UniProt P11712)
# [12] = biological target: Cytochrome P450 2C19 (Homo sapiens, UniProt P33261); experiment: Cytochrome panel assay with activity outcomes. Panel member name: p450-cyp2c19 Compounds with AC50 equal or less than 10 uM are considered active; format: functional; settings: read-out: AC50
# Chain of Cytochrome P450 2C19 (P33261 whole entry): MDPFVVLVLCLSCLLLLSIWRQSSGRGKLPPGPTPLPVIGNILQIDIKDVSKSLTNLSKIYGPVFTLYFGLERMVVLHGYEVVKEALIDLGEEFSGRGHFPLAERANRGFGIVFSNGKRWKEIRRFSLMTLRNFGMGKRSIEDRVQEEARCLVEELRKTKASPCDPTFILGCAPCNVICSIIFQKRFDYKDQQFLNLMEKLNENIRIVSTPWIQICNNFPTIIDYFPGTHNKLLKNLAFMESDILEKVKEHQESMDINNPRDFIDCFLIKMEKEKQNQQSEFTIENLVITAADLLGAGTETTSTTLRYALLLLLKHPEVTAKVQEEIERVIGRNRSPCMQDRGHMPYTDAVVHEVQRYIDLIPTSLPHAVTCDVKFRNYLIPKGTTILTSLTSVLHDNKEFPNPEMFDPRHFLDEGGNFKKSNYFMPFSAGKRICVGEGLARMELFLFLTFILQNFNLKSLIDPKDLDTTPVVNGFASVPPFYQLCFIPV
# Chain of Cytochrome P450 3A4 (P08684 whole entry): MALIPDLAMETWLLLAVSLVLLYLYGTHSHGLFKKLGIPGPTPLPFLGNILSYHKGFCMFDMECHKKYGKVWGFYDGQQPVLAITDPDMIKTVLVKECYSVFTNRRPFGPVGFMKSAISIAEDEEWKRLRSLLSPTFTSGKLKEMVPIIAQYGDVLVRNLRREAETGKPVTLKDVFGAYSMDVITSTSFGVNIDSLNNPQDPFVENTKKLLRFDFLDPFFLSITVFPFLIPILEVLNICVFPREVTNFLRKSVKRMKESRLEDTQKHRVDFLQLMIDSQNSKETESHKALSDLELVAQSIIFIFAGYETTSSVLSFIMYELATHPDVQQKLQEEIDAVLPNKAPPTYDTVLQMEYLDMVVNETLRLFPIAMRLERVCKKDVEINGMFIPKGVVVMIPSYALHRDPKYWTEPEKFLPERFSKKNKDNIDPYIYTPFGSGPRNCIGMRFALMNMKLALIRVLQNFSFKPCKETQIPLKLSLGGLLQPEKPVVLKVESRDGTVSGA
# Chain of Cytochrome P450 2C9 (P11712 whole entry): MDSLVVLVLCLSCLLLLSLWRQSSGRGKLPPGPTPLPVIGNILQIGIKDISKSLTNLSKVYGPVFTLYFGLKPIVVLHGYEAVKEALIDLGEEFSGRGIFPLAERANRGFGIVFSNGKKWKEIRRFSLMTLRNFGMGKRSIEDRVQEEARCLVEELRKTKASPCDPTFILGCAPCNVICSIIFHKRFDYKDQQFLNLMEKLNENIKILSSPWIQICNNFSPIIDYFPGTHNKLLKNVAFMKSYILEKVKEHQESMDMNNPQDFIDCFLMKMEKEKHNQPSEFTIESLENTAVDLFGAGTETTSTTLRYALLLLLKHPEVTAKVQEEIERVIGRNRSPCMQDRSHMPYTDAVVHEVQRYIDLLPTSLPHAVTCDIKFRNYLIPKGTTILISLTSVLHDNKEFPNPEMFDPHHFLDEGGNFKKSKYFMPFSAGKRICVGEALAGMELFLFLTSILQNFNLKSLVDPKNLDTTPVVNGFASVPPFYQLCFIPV
# Chain of Cytochrome P450 2D6 (P10635 whole entry): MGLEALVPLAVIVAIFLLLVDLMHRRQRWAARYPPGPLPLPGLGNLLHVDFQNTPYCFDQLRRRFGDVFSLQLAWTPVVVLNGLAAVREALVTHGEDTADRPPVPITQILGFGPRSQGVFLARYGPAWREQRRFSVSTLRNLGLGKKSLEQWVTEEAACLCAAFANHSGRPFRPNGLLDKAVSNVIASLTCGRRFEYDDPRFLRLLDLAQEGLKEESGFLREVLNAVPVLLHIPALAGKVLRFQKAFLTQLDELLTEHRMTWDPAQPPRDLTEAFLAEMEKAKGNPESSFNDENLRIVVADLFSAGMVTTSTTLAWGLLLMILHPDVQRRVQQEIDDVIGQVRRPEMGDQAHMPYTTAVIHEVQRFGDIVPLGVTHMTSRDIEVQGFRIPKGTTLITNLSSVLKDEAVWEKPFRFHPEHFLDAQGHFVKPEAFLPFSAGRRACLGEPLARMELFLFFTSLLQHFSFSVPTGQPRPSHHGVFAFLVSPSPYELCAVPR
smiles,measurement,setting,value
CC1=NNC(=O)C1Cc1ccc(F)cc1 (stereo not drawn),AC50,[1],14 µM (active)
same,EC50,[2],14.2 µM (active)
Cc1cc(C(=O)CSc2cccc[n+]2[O-])c(C)n1-c1ccc(Br)cc1,EC50,[3],< 0.1 µM (active)
same,EC50,[4],55.6 µM (active)
same,EC50,[5],> 120 µM (not active)
COc1ccc(-c2ccc(C)cc2)cc1[C@H]1[C@@H]2C=CCC[C@@]2(C)C(=O)N1Cc1ccccc1,AC50,[6],3.36 µM (active)
O=C(Nc1ccccc1N(C(=O)c1ccco1)S(=O)(=O)c1cccs1)c1ccco1,AC50,[1],5.6 µM (active)
same,EC50,[2],8.58 µM (active)
COc1ccc(C(c2c(C)n[nH]c2O)c2c(C)n[nH]c2O)cc1Br,AC50,[1],0.32 µM (active)
same,EC50,[2],0.289 µM (active)
Cc1csc2c(N3CCN(C(=O)c4ccc(C(C)(C)C)cc4)CC3)ncnc12,AC50,[7],13.2 µM (active)
Cn1nc(/C=C/c2ccccc2)ccc1=O,EC50,[3],10.9 µM (active)
same,EC50,[4],15.2 µM (active)
same,EC50,[5],14.1 µM (active)
COc1ccccc1-c1nc(N2CCOCC2)c2ccccc2n1,AC50,[8],12.6 µM (inconclusive)
same,AC50,[9],15.8 µM (inconclusive)
Cc1ccc(C(=O)NC(=S)NCC(=O)c2ccccc2)cc1,AC50,[10],2.24 µM (inconclusive)
same,AC50,[9],8.91 µM (inconclusive)
same,AC50,[11],2.51 µM (inconclusive)
CCc1cc2c(nc1CC)CCN(CC/C(C)=N/OC[C@H]1O[C@H](c3ccccc3)C=C[C@@H]1Oc1ccc(OC)cc1)C2,AC50,[8],6.31 µM (inconclusive)
same,AC50,[9],6.31 µM (inconclusive)
same,AC50,[11],6.31 µM (inconclusive)
O=c1c2c3nc4ccccc4nc3n(/N=C/c3ccccn3)c2ncn1-c1ccccc1,EC50,[3],> 120 µM (not active)
same,EC50,[4],13 µM (active)
same,EC50,[5],> 120 µM (not active)
O=C(Nc1cccn2ncnc12)c1ccccc1,EC50,[3],> 120 µM (not active)
same,EC50,[4],14.8 µM (active)
same,EC50,[5],23.5 µM (active)
Cc1n[nH]c(O)c1C(c1ccc([N+](=O)[O-])cc1)c1c(C)n[nH]c1O,AC50,[1],0.704 µM (active)
same,EC50,[2],0.27 µM (active)
Cc1ccc(NC(=O)CC2SCCNC2=O)cc1Cl (stereo not drawn),EC50,[3],14.5 µM (active)
same,EC50,[4],30.9 µM (active)
same,EC50,[5],> 120 µM (not active)
Cc1ccc2nsnc2c1NS(=O)(=O)c1c(C)ccc2nsnc12,AC50,[1],37.8 µM (active)
same,EC50,[2],24.8 µM (active)
Clc1ccc(-c2cnc(Oc3ccccc3)nc2)cc1,EC50,[3],2.63 µM (active)
same,EC50,[4],0.194 µM (active)
CC#CCOC(=O)c1c(C)nc2sc3c(c2c1N)CCC(O)C3 (stereo not drawn),AC50,[6],4.7 µM (active)
Cc1cc(C)n(C(=O)c2cc3sccc3[nH]2)n1,EC50,[3],6.99 µM (active)
same,EC50,[4],14.6 µM (active)
same,EC50,[5],83.6 µM (inconclusive)
Cc1ccccc1NC(=O)C1Cc2ccccc2CN1C(=O)c1ccco1 (stereo not drawn),EC50,[3],35.6 µM (active)
same,EC50,[4],39.3 µM (active)
same,EC50,[5],12.7 µM (active)
CCOC(=O)C(=NCCCN1CCOCC1)NNc1cccc(C(F)(F)F)c1,AC50,[6],8.17 µM (active)
O=C(C1CCCN(S(=O)(=O)c2ccc([N+](=O)[O-])cc2)C1)N1CCCCC1 (stereo not drawn),AC50,[6],> 195 µM (inactive)
COc1ccc(C(CC(=O)Nc2ccccn2)N2Cc3ccccc3C2=O)cc1 (stereo not drawn),EC50,[3],> 60 µM (not active)
same,EC50,[4],16.4 µM (active)
same,EC50,[5],> 120 µM (not active)
COc1ccccc1NC(=O)Nc1ccc(-n2ccc(C(F)(F)F)n2)cc1,AC50,[6],4.01 µM (active)
COc1ccc(CCc2nc(-c3cccs3)no2)cc1,EC50,[3],19.2 µM (active)
same,EC50,[4],6.22 µM (active)
same,EC50,[5],23.3 µM (active)
Fc1ccc(NC(S)=Nc2cc(-c3ccccc3)[nH]n2)cc1Cl,AC50,[6],3.05 µM (active)
COc1ccc(OC)c(/C=N/c2ccccc2-c2nc3ccccc3[nH]2)c1,EC50,[3],13.1 µM (active)
same,EC50,[4],8.07 µM (active)
same,EC50,[5],10.8 µM (active)
CCOC(=O)C1=C(O)/C(=C\c2ccc(OC)c(OC)c2)N=C1C,AC50,[12],39.8 µM (inconclusive)
same,AC50,[10],8.91 µM (inconclusive)
same,AC50,[9],15.8 µM (inconclusive)
Cc1ccccc1C(=O)N1CCN(c2ccc(NC(=O)c3cccnc3)cc2)CC1,AC50,[7],7.89 µM (active)
Cc1ccc(-c2nnc(-c3ccc4ccccc4c3)o2)cc1,AC50,[9],6.31 µM (inconclusive)
same,AC50,[11],5.01 µM (inconclusive)
CCOc1cc(/C=C2\C(=O)N(c3ccc(C(N)=O)cc3)N=C2C)ccc1OC(=O)c1cccs1,AC50,[1],2.35 µM (active)
same,EC50,[2],1.93 µM (active)
O=C(c1ccc(Cl)cc1)c1c[nH]c(C(=O)C(Cl)(Cl)Cl)c1,EC50,[2],> 380 µM (inconclusive)
C[C@](O)(C(=O)Nc1ccc(S(=O)(=O)c2ccccc2)cc1)C(F)(F)F,AC50,[12],6.31 µM (inconclusive)
same,AC50,[8],31.6 µM (inconclusive)
same,AC50,[10],39.8 µM (inconclusive)
same,AC50,[9],31.6 µM (inconclusive)
CCOC(=O)c1cnn(-c2ccc(C(F)(F)F)cn2)c1N,EC50,[3],21.1 µM (active)
same,EC50,[4],> 120 µM (not active)
same,EC50,[5],> 120 µM (not active)
